For assay [1], the system named is Phytophthora infestans. In kind it is in vivo. Conditions: 250 ppm active compound, potted tomato plants, sprayed 1 day before infection, assessed after 6 days; untreated plants 70% infected.
Assay [2] relates to Pyricularia oryzae. In kind it is cell-based. Conditions: 125 ppm active compound, microtiter plate, absorption at 405 nm on day 7 after inoculation, relative to active compound-free control.

Among the data in patent US20070197389A1 (priority 2004, published 2007) are infection and relative growth values, retold here.

Structures are written as SMILES.

Regarding `CCC(=O)Nc1c(-c2c(F)cc(F)cc2F)c(Cl)nc2ncnn12` [Example 5, N-[5-chloro-6-(2,4,6-trifluorophenyl)(1,2,4-triazolo-[1,5-a]pyrimidin-7-yl)]propionamide], in assay [1], the infection entry is “less than or equal to 15%”.
For `CC(=O)Nc1c(-c2c(F)cc(F)cc2F)c(Cl)nc2ncnn12` [Example 4, N-[5-Chloro-6-(2,4,6-trifluorophenyl)(1,2,4-triazolo[1,5-a]pyrimidin-7-yl)]acetamide], in assay [2], the relative growth entry is given as “less than or equal to 1%”.
